Measurements from US9945845B2, “Methods of screening using amphibians” (priority 2009, dated 2018).
Where two headings read alike, the source gives them in different places.

How the values were obtained:
LEC = test: cells; format: cell-based, human; conditions: Homo sapiens; for activity at 1 µM: 1 μM in 0.1% DMSO
Summary of the method: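 HUVEC and LEC in EBM with 20% FBS, hydrocortisone and dibutyryl-cAMP, up to eleven passages, treated overnight at 37 °C with compound at 1 μM in 0.1% DMSO, then fixed in 4% paraformaldehyde. Read-out: total tube length (μm) per area over three hotspot images per well, triplicate wells.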

[1] = test system: blood vessel development and/or lymphangiogenesis in Xenopus embryos; format: in vivo, Xenopus laevis
Summary of the method: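 Albino Xenopus embryos treated at 20 μM final (from 10-mM DMSO stocks) in screening medium, 7 per well, from stage 31 (37 hpf) to stage 35/36 (50 hpf) or 42 (80 hpf). Fixed in 4% paraformaldehyde and scored by whole-mount in situ hybridization: vasculogenesis and intersomitic vein angiogenesis at stage 35/36, lymph vessel development at stage 42.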

SMILES: Oc1cc(-c2ccccc2)nc2nc(Cl)ccc12 [7-Chloro-4-hydroxy-2-phenyl-1,8-naphthyridine]
- activity at 1 µM (LEC; overnight, read-out: LEC tube formation): 50 to 85%
- activity at 1 µM (LEC; read-out: LEC tube formation (tube length)): 50 to 85%
- IC50 (LEC; doses 0.2-2 μM, data not shown, read-out: IC50 of LEC tube formation): 1300 nM
- blood vessel development phenotype (apj expression, in words) ([1]; 20 μM from stage 31, fixed at stage 35/36): interfered not only with ISV angiogenesis but also with VVN assembly
- lymph vessel development phenotype (vegfr3 expression, in words) ([1]; 20 μM from stage 31, fixed at stage 42): stunted, disorganized lymphatic vessels arising from the ALS and ALH
- ALH phenotype ([1]; anterior lymph heart, Xenopus embryos): dysplastic
- ALS phenotype ([1]; anterior lymph sac, Xenopus embryos): stunted
- ISV phenotype ([1]; intersomitic vessels, Xenopus embryos): stunted
- PCV phenotype ([1]; posterior cardinal vein, Xenopus embryos): normal
- PLV phenotype ([1]; posterior lymph vessels, Xenopus embryos): hypoplastic
- VVN phenotype ([1]; vitelline vein network, Xenopus embryos): hypoplastic
